Assay results reported in patent US12150995B2, “IRAK degraders and uses thereof” (Kymera Therapeutics, Inc., priority 2020, dated 2024).

molecular target: T1, IRAK4 (Homo sapiens, UniProt Q9NWZ3); assay: IRAK4 MSD Degradation in OCI-LY10; assay type: cell-based; details: OCI-LY10 cells, Meso Scale Discovery, incubated 4 to 24 hours
T1 construct: endogenous in cells; host or cells: OCI-LY10
T1 sequence (Q9NWZ3 1-460): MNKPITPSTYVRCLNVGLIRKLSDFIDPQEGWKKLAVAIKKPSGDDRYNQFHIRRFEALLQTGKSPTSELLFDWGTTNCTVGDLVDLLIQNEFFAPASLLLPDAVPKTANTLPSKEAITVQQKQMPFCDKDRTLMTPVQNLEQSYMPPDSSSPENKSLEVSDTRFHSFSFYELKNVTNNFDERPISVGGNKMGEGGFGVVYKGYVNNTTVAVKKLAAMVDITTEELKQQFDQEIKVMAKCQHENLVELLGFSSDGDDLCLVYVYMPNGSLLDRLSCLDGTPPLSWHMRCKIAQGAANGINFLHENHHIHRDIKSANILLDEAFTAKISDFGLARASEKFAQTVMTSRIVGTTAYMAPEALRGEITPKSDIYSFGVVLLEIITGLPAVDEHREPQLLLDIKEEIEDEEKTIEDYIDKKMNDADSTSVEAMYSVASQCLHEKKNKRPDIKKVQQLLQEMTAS
Outline: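 OCI-LY10 cells (300,000/well) exposed to an 8-point 1:3 series from a top concentration of 1 to 10 μM for 4 to 24 h at 37 °C. IRAK4 remaining in RIPA lysates quantified by MSD sandwich immunoassay; DC50 from a three-parameter logistic fit.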

Structure (SMILES)	DC50
Cn1c(=O)n(C2CCC(=O)NC2=O)c2cccc(N3CCN(C[C@H]4CC[C@H](n5cc6cc(NC(=O)c7cccc(C(F)(F)F)n7)c(N7CCCC7)cc6n5)CC4)CC3)c21 (stereo partly shown) [I-392]	10 to 50 nM
COc1ccc2c(c1N1CCN(C[C@H]3CC[C@H](NC(=O)c4cnc(-c5ccc6cc(C#N)cnn56)cc4NC(C)C)CC3)CC1)n(C)c(=O)n2C1CCC(=O)NC1=O (stereo partly shown) [I-395]	< 10 nM
Cc1cc2nn([C@H]3CC[C@H](CN4C5CC4CN(c4cccc6c4n(C)c(=O)n6C4CCC(=O)NC4=O)C5)CC3)cc2cc1NC(=O)c1cccc(C(F)(F)F)n1 (stereo partly shown) [I-396]	10 to 50 nM
CC(C)c1cc2nn([C@H]3CC[C@H](CN4CCN(c5cccc6c5n(C)c(=O)n6C5CCC(=O)NC5=O)CC4)CC3)cc2cc1NC(=O)c1cccc(C(F)(F)F)n1 (stereo partly shown) [I-397]	< 10 nM
Cc1cc2nn([C@H]3CC[C@H](CN4C5CCC4CN(c4cccc6c4n(C)c(=O)n6C4CCC(=O)NC4=O)C5)CC3)cc2cc1NC(=O)c1cccc(C(F)(F)F)n1 (stereo partly shown) [I-398]	< 10 nM
Cc1cc2nn([C@H]3CC[C@H](CN4CCN(c5cccc6c5n(C)c(=O)n6[C@H]5CCC(=O)NC5=O)CC4)CC3)cc2cc1NC(=O)c1cccc(C(F)(F)F)n1 [I-399, N-[2-[4-[[4-[1-[(3S)-2,6-dioxo-3-piperidyl]-3-methyl-2-oxo-benzimidazol-4-yl]piperazin-1-yl]methyl]cyclohexyl]-6-methyl-indazol-5-yl]-6-(trifluoromethyl)pyridine-2-carboxamide]	10 to 50 nM
Cc1cc2nn([C@H]3CC[C@H](CN4CCN(c5cccc6c5n(C)c(=O)n6[C@@H]5CCC(=O)NC5=O)CC4)CC3)cc2cc1NC(=O)c1cccc(C(F)(F)F)n1 [I-400, N-[2-[4-[[4-[1-[(3R)-2,6-dioxo-3-piperidyl]-3-methyl-2-oxo-benzimidazol-4-yl]piperazin-1-yl]methyl]cyclohexyl]-6-methyl-indazol-5-yl]-6-(trifluoromethyl)pyridine-2-carboxamide]	< 10 nM
Cc1cc2nn([C@H]3CC[C@H](CN4CCN(c5cccc6c5n(C)c(=O)n6C5CCC(=O)NC5=O)CC4)CC3)cc2cc1NC(=O)c1cncc(C(F)(F)F)n1 (stereo partly shown) [I-401]	< 10 nM
Cc1cc2nn([C@H]3CC[C@H](CN4CCC(c5cccc6c5n(C)c(=O)n6C5CCC(=O)N(C)C5=O)CC4)CC3)cc2cc1NC(=O)c1cccc(C(F)(F)F)n1 (stereo partly shown) [I-403]	> 200 nM

Other lines, results leading:

DC50	Structure (SMILES)
> 200 nM	Cc1cc2nn([C@H]3CC[C@H](CN4CCN(c5cccc6c5n(C)c(=O)n6C5CCC(=O)N(C)C5=O)CC4)CC3)cc2cc1NC(=O)c1cccc(C(F)(F)F)n1 (stereo partly shown) [I-404]
10 to 50 nM	COC(=O)c1cc2nn([C@H]3CC[C@H](CN4CCN(c5cccc6c5n(C)c(=O)n6C5CCC(=O)NC5=O)CC4)CC3)cc2cc1NC(=O)c1cccc(C(F)(F)F)n1 (stereo partly shown) [I-405]
10 to 50 nM	Cn1c(=O)n(C2CCC(=O)NC2=O)c2cccc(N3CCN(C[C@H]4CC[C@H](n5cc6cc7nc(-c8cccc(C(F)(F)F)n8)oc(=O)c7cc6n5)CC4)CC3)c21 (stereo partly shown) [I-406, 3-[3-methyl-2-oxo-4-[4-[[4-[8-oxo-6-[6-(trifluoromethyl)-2-pyridyl]pyrazolo[3,4-g] [3,1]benzoxazin-2-yl]cyclohexyl]methyl]piperazin-1-yl]benzimidazol-1-yl]piperidine-2,6-dione]
< 10 nM	CC(C)Nc1c(C(=O)N[C@H]2CC[C@H](CN3CCN(c4cccc5c4n(C)c(=O)n5C4CCC(=O)NC4=O)CC3)CC2)cnc2c1Oc1cc(C#N)ccc1O2 (stereo partly shown) [I-407]
> 200 nM	CC(C)Nc1c(C(=O)N[C@H]2CC[C@H](CN3CCN(c4cccc5c(N6CCC(=O)NC6=O)cncc45)CC3)CC2)cnc2c1Oc1ccc(C#N)cc1O2 [I-408]
> 200 nM	CC(C)Nc1c(C(=O)N[C@H]2CC[C@H](CN3CCN(c4cccc5c4n(C)c(=O)n5C4CCC(=O)NC4=O)CC3)CC2)cnc2c1Oc1ccc(C#N)cc1O2 (stereo partly shown) [I-410]
10 to 50 nM	CC(C)Nc1cc(-c2ccc3cc(C#N)cnn23)ncc1-c1cn([C@H]2CC[C@H](CN3CCN(c4cccc5c4n(C)c(=O)n5C4CCC(=O)NC4=O)CC3)CC2)nn1 (stereo partly shown) [I-411]
